Values of other authors, collected in patent US10987305B2, “Preparation of respirable zafirlukast particles” (Hovione Scientia Limited, priority 2015, dated 2021).

Experiments:
[1] = as disclosed in US 5,504,216 and related patents
[2] = as disclosed in US 5,504,216 and related patents; remark: listed apart in the source

Bioavailability [1]	Physical stability [2]	SMILES
most bioavailable	less physically stable	COc1cc(C(=O)NS(=O)(=O)c2ccccc2C)ccc1Cc1cn(C)c2ccc(NC(=O)OC3CCCC3)cc12 [amorphous form, zafirlukast]
relatively poor bioavailability	physically stable	COc1cc(C(=O)NS(=O)(=O)c2ccccc2C)ccc1Cc1cn(C)c2ccc(NC(=O)OC3CCCC3)cc12 [crystalline anhydrous form, zafirlukast]
relatively poor bioavailability	physically stable	COc1cc(C(=O)NS(=O)(=O)c2ccccc2C)ccc1Cc1cn(C)c2ccc(NC(=O)OC3CCCC3)cc12 [crystalline monohydrate form, zafirlukast]
